According to EP4810040A2, “INHIBITORS OF APOL1 AND METHODS OF USING SAME” (priority 2020, dated 2022):

Columns and labels:
APOL1 G1 [1] = biological target: T1, APOL1 G1 (Homo sapiens, UniProt O14791, I384M/S342G); test: MultiTox-Fluor Multiplex Cytotoxicity Assay, tet-inducible APOL1 G1 T-REx-HEK293 cells; type: cell-based; set-up: expressed in transfected cells; host or cells: T-REx HEK293, clone G1 DC3.25 (pAAVS1-Puro-APOL1 G1); conditions: Multi-Tox Assay; for IC50: IP50 = IC50 for cell proliferation, APOL1 variant not given; for IC90: APOL1 variant (G0/G1/G2) of the HEK293 cells not given, read-out: Multi-Tox Assay IC90
T1 sequence (O14791 28-398 S342G/I384M): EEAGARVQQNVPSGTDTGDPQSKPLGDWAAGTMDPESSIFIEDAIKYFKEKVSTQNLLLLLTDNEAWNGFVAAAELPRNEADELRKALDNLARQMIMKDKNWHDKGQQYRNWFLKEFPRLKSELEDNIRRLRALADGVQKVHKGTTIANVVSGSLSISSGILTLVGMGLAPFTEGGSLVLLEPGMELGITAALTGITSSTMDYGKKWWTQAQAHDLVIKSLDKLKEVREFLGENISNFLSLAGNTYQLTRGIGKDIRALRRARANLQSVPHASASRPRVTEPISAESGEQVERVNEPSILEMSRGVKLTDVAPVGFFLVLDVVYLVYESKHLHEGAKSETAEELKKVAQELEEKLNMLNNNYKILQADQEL
Outline: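 Over 24 h at 37 °C, compounds (10-point 3-fold series from 10 µM, duplicate) were co-incubated with 50 ng/mL tetracycline inducing APOL1 G1 in T-REx-HEK293 cells. Viability/cytotoxicity measured by MultiTox-Fluor as dead-to-live fluorescence ratio, expressed as percent of control between uninduced and induced wells and fitted.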

APOL1 G1 [2] = biological target: T1, APOL1 G1; test: Trypanosoma brucei brucei Lysis Assay Using APOL1 Recombinant Protein (AlamarBlue viability readout); type: cell-based; conditions: IP50 = IC50 for cell proliferation; Trypanosome Assay
Excerpt: Trypanosoma brucei brucei is a blood stream parasite to which human, gorillas, and baboons are immune due to the presence of the APOL1 protein in their HDL particles. The protein is uptaken by the parasite via the TbHpHb receptor located in its flagellar pocket and is bonded by the Hpr protein contained in the HDL particles which triggers the receptor endocytosis by the parasite.
Following endocytosis, the formed vesicle containing the HDL particle matures from early to late endosome, and subsequently to lysosome. The concomitant pH change in the lumen of the vesicle triggers the insertion of the APOL1 protein into the membrane of the late endosome/lysosome and hereby triggers lysosomal membrane permeabilization and as a further downstream event, trypanosome lysis. Trypanosoma brucei brucei is sensitive to lysis by all three APOL1 variants (G0, G1, and G2).
The Trypanosoma brucei brucei lysis assay is a lysis assay of the parasite using recombinant APOL1 protein variant followed by a fluorescent detection method of viability by the addition of AlamarBlue reagent to the assay well, a general metabolic redox indicator (AlamarBlue assay).
Briefly, the AlamarBlue active compound, resazurin, a blue, water soluble, non-toxic and cell permeable molecule, which can be followed by absorbance, is reduced by various metabolic pathways into resorufin, a red compound which can be followed by either absorbance or fluorescence. The assay allows the calculation of the percent viability (percent of living Trypanosomes remaining in each well) at the end of a lysis relative to the untreated condition by interpolation of fluorescent values (FLU) on a standard curve with a known amount of seeded trypanosome/well.
Trypanosoma brucei brucei (ATCC, Cat. No. PRA-382) • o Lister 427 VSG 221 bloodstream form.
Assay Ready Plates (ARPs) ∘ ARPs comes in two formats: • […] final top concentration with a 2.5 fold dilution down. • 5 mM final top concentration with a 3 fold dilution down. • ▪ Both have a 10 point Dose response. • ▪ 0.1% DMSO final in the Black Assay Plate. • ▪ Compounds are diluted 1000 fold in the Black Assay Plate. • ▪ Each plate is designed for 14 compounds in duplicate. ∘ In the final Black Assay Plate: […]

Row | Substance | IC50 (APOL1 G1 [1]) [nM] | IC90 (APOL1 G1 [1]) [nM] | IC50 (APOL1 G1 [2]) [nM]
1 | 2'-ethyl-6'-(1-methyltriazol-4-yl)-2-(trifluoromethyl)spiro[4,5-dihydrothieno[2,3-c]pyran-7,4'-piperidine] [Compound 187] | < 50 | < 50 | 50 to 500
2 | 2-chloro-2'-ethyl-6'-(1-methyltriazol-4-yl)spiro[4,5-dihydrothieno[2,3-c]pyran-7,4'-piperidine] [Compound 186] | < 50 | 50 to 500 | 50 to 500
3 | (2S)-2-chloro-2'-methyl-6'-(1-methylpyrazol-4-yl)spiro[4,5-dihydrothieno[2,3-c]pyran-7,4'-piperidine]-4-ol [Compound 175] | < 50 | < 50 | < 50
4 | (2S,6S)-2-chloro-2'-cyclopropyl-6'-methyl-spiro[4,5-dihydrothieno[2,3-c]pyran-7,4'-piperidine] [Compound 211] | < 50 | 50 to 500 | 50 to 500
